The NIST ThermoML archive (doi:10.1021/je8007759)

Assay: xn = mol fraction of the nth substance listed

CC1CCC(=O)O1 (stereo not given) [γ-valerolactone] + O=C=O
Fluid (supercritical or subcritical phases), Pycnometric method
Settings | mass density [kg/m3]
313.2 K, 10860 kPa, x1 = 0.1 | 942
313.2 K, 10880 kPa, x1 = 0.025 | 833
313.2 K, 11030 kPa, x1 = 0.01 | 778
313.2 K, 11160 kPa, x1 = 0.025 | 840
313.2 K, 11200 kPa, x1 = 0.05 | 872
313.2 K, 11230 kPa, x1 = 0.15 | 981
313.2 K, 11440 kPa, x1 = 0.01 | 789
313.2 K, 11450 kPa, x1 = 0.025 | 846
313.2 K, 11640 kPa, x1 = 0.1 | 949
313.2 K, 11660 kPa, x1 = 0.05 | 878
313.2 K, 11770 kPa, x1 = 0.025 | 852
313.2 K, 11850 kPa, x1 = 0.15 | 985
313.2 K, 11950 kPa, x1 = 0.01 | 802
313.2 K, 12460 kPa, x1 = 0.15 | 987
313.2 K, 12490 kPa, x1 = 0.1 | 956
313.2 K, 13220 kPa, x1 = 0.15 | 992
313.2 K, 13510 kPa, x1 = 0.1 | 964
313.2 K, 13960 kPa, x1 = 0.15 | 995
313.2 K, 14650 kPa, x1 = 0.15 | 999
313.2 K, 15420 kPa, x1 = 0.15 | 1002
313.2 K, 16160 kPa, x1 = 0.15 | 1006
313.2 K, 16920 kPa, x1 = 0.15 | 1009
316.2 K, 8740 kPa, x1 = 0.025 | 683
316.2 K, 8760 kPa, x1 = 0.025 | 687
316.2 K, 8790 kPa, x1 = 0.025 | 692
316.2 K, 8810 kPa, x1 = 0.025 | 696
316.2 K, 8830 kPa, x1 = 0.025 | 700
316.2 K, 8880 kPa, x1 = 0.025 | 704
316.2 K, 8910 kPa, x1 = 0.025 | 709
316.2 K, 8960 kPa, x1 = 0.025 | 713
316.2 K, 8990 kPa, x1 = 0.025 | 718
316.2 K, 9060 kPa, x1 = 0.025 | 723
316.2 K, 9110 kPa, x1 = 0.025 | 728
316.2 K, 9180 kPa, x1 = 0.025 | 732
316.2 K, 9250 kPa, x1 = 0.025 | 737
316.2 K, 9320 kPa, x1 = 0.025 | 742
316.2 K, 9410 kPa, x1 = 0.025 | 747
316.2 K, 9500 kPa, x1 = 0.025 | 752
316.2 K, 9590 kPa, x1 = 0.025 | 758
316.2 K, 9700 kPa, x1 = 0.025 | 762
316.2 K, 9800 kPa, x1 = 0.025 | 768
316.2 K, 9930 kPa, x1 = 0.025 | 772
316.2 K, 10060 kPa, x1 = 0.025 | 778
316.2 K, 10210 kPa, x1 = 0.025 | 783
316.2 K, 10360 kPa, x1 = 0.025 | 788
316.2 K, 10520 kPa, x1 = 0.025 | 794
316.2 K, 10720 kPa, x1 = 0.025 | 800
316.2 K, 10910 kPa, x1 = 0.025 | 806
316.2 K, 11110 kPa, x1 = 0.025 | 812
316.2 K, 11350 kPa, x1 = 0.025 | 818
316.2 K, 11610 kPa, x1 = 0.025 | 824
316.2 K, 11880 kPa, x1 = 0.025 | 830
316.2 K, 12200 kPa, x1 = 0.025 | 836
316.2 K, 12480 kPa, x1 = 0.025 | 842
318 K, 9060 kPa, x1 = 0.01 | 519
318 K, 9080 kPa, x1 = 0.01 | 522
318 K, 9090 kPa, x1 = 0.01 | 525
318 K, 9110 kPa, x1 = 0.01 | 529
318 K, 9120 kPa, x1 = 0.01 | 532
318 K, 9140 kPa, x1 = 0.01 | 535
318 K, 9180 kPa, x1 = 0.01 | 542
318 K, 9180 kPa, x1 = 0.15 | 949
318 K, 9190 kPa, x1 = 0.025 | 680
318 K, 9220 kPa, x1 = 0.01 | 549
318 K, 9230 kPa, x1 = 0.025 | 683
318 K, 9250 kPa, x1 = 0.01 | 556
318 K, 9260 kPa, x1 = 0.025 | 688
318 K, 9270 kPa, x1 = 0.05 | 776
318 K, 9290 kPa, x1 = 0.01 | 563
318 K, 9290 kPa, x1 = 0.025 | 692
318 K, 9330 kPa, x1 = 0.01 | 570
318 K, 9330 kPa, x1 = 0.05 | 782
318 K, 9340 kPa, x1 = 0.025 | 696
318 K, 9380 kPa, x1 = 0.01 | 578
318 K, 9380 kPa, x1 = 0.025 | 700
318 K, 9410 kPa, x1 = 0.05 | 787
318 K, 9410 kPa, x1 = 0.1 | 894
318 K, 9430 kPa, x1 = 0.01 | 586
318 K, 9430 kPa, x1 = 0.025 | 705
318 K, 9480 kPa, x1 = 0.01 | 593
318 K, 9480 kPa, x1 = 0.025 | 709
318 K, 9480 kPa, x1 = 0.05 | 792
318 K, 9490 kPa, x1 = 0.15 | 952
318 K, 9530 kPa, x1 = 0.025 | 714
318 K, 9540 kPa, x1 = 0.01 | 602
318 K, 9540 kPa, x1 = 0.1 | 896
318 K, 9590 kPa, x1 = 0.025 | 718
318 K, 9600 kPa, x1 = 0.05 | 797
318 K, 9610 kPa, x1 = 0.01 | 611
318 K, 9660 kPa, x1 = 0.025 | 723
318 K, 9690 kPa, x1 = 0.01 | 619
318 K, 9730 kPa, x1 = 0.025 | 728
318 K, 9730 kPa, x1 = 0.1 | 900
318 K, 9760 kPa, x1 = 0.05 | 803
318 K, 9800 kPa, x1 = 0.01 | 631
318 K, 9800 kPa, x1 = 0.025 | 732
318 K, 9860 kPa, x1 = 0.025 | 737
318 K, 9880 kPa, x1 = 0.1 | 903
318 K, 9930 kPa, x1 = 0.01 | 642
318 K, 9940 kPa, x1 = 0.05 | 809
318 K, 9940 kPa, x1 = 0.15 | 956
318 K, 9950 kPa, x1 = 0.025 | 742
318 K, 10020 kPa, x1 = 0.01 | 652
318 K, 10050 kPa, x1 = 0.025 | 747
318 K, 10080 kPa, x1 = 0.01 | 657
318 K, 10130 kPa, x1 = 0.05 | 814
318 K, 10140 kPa, x1 = 0.1 | 906
318 K, 10150 kPa, x1 = 0.025 | 752
318 K, 10260 kPa, x1 = 0.025 | 757
318 K, 10320 kPa, x1 = 0.15 | 959
318 K, 10340 kPa, x1 = 0.05 | 820
318 K, 10340 kPa, x1 = 0.1 | 909
318 K, 10380 kPa, x1 = 0.025 | 762
318 K, 10500 kPa, x1 = 0.025 | 768
318 K, 10600 kPa, x1 = 0.05 | 825
318 K, 10610 kPa, x1 = 0.1 | 912
318 K, 10640 kPa, x1 = 0.025 | 773
318 K, 10750 kPa, x1 = 0.01 | 695
318 K, 10800 kPa, x1 = 0.025 | 779
318 K, 10850 kPa, x1 = 0.1 | 916
318 K, 10870 kPa, x1 = 0.05 | 832
318 K, 10920 kPa, x1 = 0.15 | 962
318 K, 10960 kPa, x1 = 0.025 | 784
318 K, 11040 kPa, x1 = 0.01 | 711
318 K, 11120 kPa, x1 = 0.025 | 789
318 K, 11140 kPa, x1 = 0.1 | 919
318 K, 11160 kPa, x1 = 0.05 | 838
318 K, 11320 kPa, x1 = 0.025 | 795
318 K, 11440 kPa, x1 = 0.1 | 922
318 K, 11470 kPa, x1 = 0.05 | 843
318 K, 11480 kPa, x1 = 0.15 | 966
318 K, 11520 kPa, x1 = 0.025 | 801
318 K, 11740 kPa, x1 = 0.025 | 806
318 K, 11750 kPa, x1 = 0.1 | 925
318 K, 11860 kPa, x1 = 0.05 | 850
318 K, 11950 kPa, x1 = 0.025 | 813
318 K, 11960 kPa, x1 = 0.15 | 969
318 K, 12090 kPa, x1 = 0.1 | 928
318 K, 12210 kPa, x1 = 0.025 | 818
318 K, 12240 kPa, x1 = 0.05 | 857
318 K, 12490 kPa, x1 = 0.025 | 824
318 K, 12600 kPa, x1 = 0.15 | 972
318 K, 12670 kPa, x1 = 0.05 | 862
318 K, 12770 kPa, x1 = 0.025 | 830
318 K, 12780 kPa, x1 = 0.1 | 935
318 K, 13080 kPa, x1 = 0.025 | 836
318 K, 13090 kPa, x1 = 0.15 | 975
318 K, 13150 kPa, x1 = 0.05 | 869
318 K, 13490 kPa, x1 = 0.025 | 843
318 K, 13580 kPa, x1 = 0.1 | 943
318 K, 13710 kPa, x1 = 0.15 | 978
318 K, 13740 kPa, x1 = 0.025 | 849
318 K, 13850 kPa, x1 = 0.05 | 878
318 K, 13990 kPa, x1 = 0.1 | 945
318 K, 14310 kPa, x1 = 0.15 | 982
318 K, 14380 kPa, x1 = 0.1 | 949
318 K, 15060 kPa, x1 = 0.15 | 986
318 K, 15680 kPa, x1 = 0.15 | 989
318 K, 16350 kPa, x1 = 0.15 | 992
318 K, 16950 kPa, x1 = 0.15 | 995
322.9 K, 9850 kPa, x1 = 0.01 | 518

mass density [kg/m3], high pressure variable cell
Settings | x1 = 0.01 | x1 = 0.025 | x1 = 0.05 | x1 = 0.1 | x1 = 0.15
313.2 K, Liquid | 539 | 723 | 803 | 910 | 961
318 K, Gas | 516 | 677 | – | – | –
318 K, Liquid | – | – | – | 891 | 948
